≈ marks a conversion by molar mass, not a printed value.
Tested on: M. tuberculosis H37Rv growth inhibition
Experiment: Confirmatory growth inhibition assay, mycobacterium tuberculosis h37rv, with cytotoxicity (AID 1332);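 also: bacteria incubated 7 days before adding Alamar blue readout reagent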

## Clc1ccc(C(Cn2ccnc2)OCc2csc3c(Cl)cccc23)c(Cl)c1 (stereo unspecified)
  IC90: 3.41 µg/mL (≈ 7.8 µM)

## C1CCC(C(CC2CCCCN2)C2CCCCC2)CC1 (stereo unspecified)
  IC90: 1.99 µg/mL (≈ 7.16 µM)

## COc1cccc2c1C(=O)c1c(O)c3c(c(O)c1C2=O)C[C@@](O)(C(C)=O)C[C@@H]3O[C@H]1C[C@H](N)[C@H](O)[C@H](C)O1
  IC90: 0.169 µg/mL (≈ 0.32 µM)

## C=C1C(=O)O[C@@H]2[C@H]3O[C@]3(C)CC/C=C(\C)CC[C@@H]12
  IC90: 1.43 µg/mL (≈ 5.76 µM)

## CN[C@@H]1[C@@H](O)[C@@H](O[C@@H]2[C@@H](O)[C@H](O[C@H]3O[C@H]([C@@H](C)N)CC[C@H]3N)[C@@H](N)C[C@H]2N)OC[C@]1(C)O
  IC90: 0.859 µg/mL (≈ 1.85 µM)

## O=C(N[C@H](CO)[C@H](O)c1ccc([N+](=O)[O-])cc1)C(Cl)Cl
  IC90: 1.06 µg/mL (≈ 3.29 µM)

## CCCCCCCCCCCCCCCC[N+](C)(C)CCN(Cc1ccc(OC)cc1)c1ncccn1
  IC90: 1.1 µg/mL

## Cc1nnc(NS(=O)(=O)c2ccc(N)cc2)s1
  IC90: 2.6 µg/mL (≈ 9.61 µM)

## COc1ccc(C[C@H](N)C(=O)N[C@H]2[C@@H](O)[C@H](n3cnc4c(N(C)C)ncnc43)O[C@@H]2CO)cc1
  IC90: 1.75 µg/mL (≈ 3.71 µM)

## CC[C@H](C)[C@H]1O[C@]2(CC[C@@H]1C)C[C@@H]1C[C@@H](C/C=C(\C)[C@@H](O[C@H]3C[C@H](OC)[C@@H](O[C@H]4C[C@H](OC)[C@@H](O)[C@H](C)O4)[C@H](C)O3)[C@@H](C)/C=C/C=C3\CO[C@@H]4[C@H](O)C(C)=C[C@@H](C(=O)O1)[C@]34O)O2
  IC90: 1.29 µg/mL (≈ 1.48 µM)

## O=C(O)c1cn(C2CC2)c2cc(N3CCNCC3)c(F)cc2c1=O
  IC90: 0.042 µg/mL (≈ 0.127 µM)

## CC(C)N=c1cc2n(-c3ccc(Cl)cc3)c3ccccc3nc-2cc1Nc1ccc(Cl)cc1
  IC90: 0.04 µg/mL (≈ 0.0845 µM)

## CN(C)CC/C=C1\c2ccccc2Sc2ccc(Cl)cc21
  IC90: 3.93 µg/mL (≈ 12.4 µM)

## COc1cc(NC(C)CCCN)c2ncccc2c1 (stereo unspecified)
  IC90: 14.5 µg/mL (≈ 55.9 µM)

## COc1cccc2c1C(=O)c1c(O)c3c(c(O)c1C2=O)C[C@@](O)(C(=O)CO)C[C@@H]3O[C@H]1C[C@H](N)[C@H](O)[C@H](C)O1
  IC90: 2.6 µg/mL (≈ 4.79 µM)

## Fc1ccc(C(OCCN2CCN(CCCc3ccccc3)CC2)c2ccc(F)cc2)cc1
  IC90: 3.58 µg/mL (≈ 7.94 µM)

## CCN(CC)C(=S)SSC(=S)N(CC)CC
  IC90: 0.164 µg/mL (≈ 0.553 µM)

## O=C(Nc1ccc([N+](=O)[O-])cc1Cl)c1cc(Cl)ccc1O
  IC90: 0.076 µg/mL (≈ 0.232 µM)

## CCCCc1oc2ccccc2c1C(=O)c1cc(I)c(OCCN(CC)CC)c(I)c1
  IC90: 6.3 µg/mL (≈ 9.76 µM)

## N=C(N)c1ccc(OCCCCCOc2ccc(C(=N)N)cc2)cc1
  IC90: 1.68 µg/mL (≈ 4.93 µM)

## CN(C)c1ccc(O)c2c1CC1CC3[C@@H](N(C)C)C(=O)C(C(N)=O)=C(O)[C@]3(O)C(=O)C1=C2O (stereo partly specified)
  IC90: 2.04 µg/mL (≈ 4.46 µM)

## Cc1cc(C=Cc2ccc3cc(N(C)C)ccc3[n+]2C)c(C)n1-c1ccccc1
  IC90: 0.195 µg/mL

## CCn1cc(C(=O)O)c(=O)c2cc(F)c(N3CCNCC3)nc21
  IC90: 4.1 µg/mL (≈ 12.8 µM)

## NCC[C@H](O)C(=O)N[C@@H]1C[C@H](N)[C@@H](O[C@H]2O[C@H](CN)[C@@H](O)[C@H](O)[C@H]2O)[C@H](O)[C@H]1O[C@H]1O[C@H](CO)[C@@H](O)[C@H](N)[C@H]1O
  IC90: 0.04 µg/mL (≈ 0.0683 µM)

## O=C1OCCN1/N=C/c1ccc([N+](=O)[O-])o1
  IC90: 5.4 µg/mL (≈ 24 µM)

## CS(=O)(=O)c1ccc([C@@H](O)[C@@H](CF)NC(=O)C(Cl)Cl)cc1
  IC90: 2.7 µg/mL (≈ 7.53 µM)

## CN(CCCCCCCCCCN(C)C(=O)Oc1cccc([N+](C)(C)C)c1)C(=O)Oc1cccc([N+](C)(C)C)c1
  IC90: 2.19 µg/mL

## NC(=NCCCCCCN=C(N)/N=C(\N)Nc1ccc(Cl)cc1)/N=C(\N)Nc1ccc(Cl)cc1
  IC90: 0.295 µg/mL (≈ 0.584 µM)

## CS(=O)(=O)c1ccc([C@@H](O)[C@@H](CO)NC(=O)C(Cl)Cl)cc1
  IC90: 2.42 µg/mL (≈ 6.81 µM)

## CNCCC=C1c2ccccc2C=Cc2ccccc21
  IC90: 17.1 µg/mL (≈ 65.3 µM)

## CN(C)/N=N/c1nc[nH]c1C(N)=O
  IC90: 0.639 µg/mL (≈ 3.51 µM)

## CCCCC(CC)CN=C(N)NC(N)=NCCCCCCN=C(N)NC(N)=NCC(CC)CCCC (stereo unspecified)
  IC90: 0.729 µg/mL (≈ 1.43 µM)

## OCCN1CCN(CCCN2c3ccccc3Sc3ccc(Cl)cc32)CC1
  IC90: 11.7 µg/mL (≈ 28.9 µM)

## CN[C@@H]1[C@H](O[C@H]2[C@H](O[C@@H]3[C@@H](O)[C@H](O)[C@@H](N=C(N)N)[C@H](O)[C@H]3N=C(N)N)O[C@@H](C)[C@]2(O)C=O)O[C@@H](CO)[C@H](O)[C@H]1O
  IC90: 1.11 µg/mL (≈ 1.92 µM)

## Clc1ccc(COC(Cn2ccnc2)c2ccc(Cl)cc2Cl)cc1 (stereo unspecified)
  IC90: 1.98 µg/mL (≈ 5.18 µM)

## CO[C@@H]1[C@@H](OC(N)=O)[C@@H](O)C(Oc2ccc3c(O)c(NC(=O)c4ccc(O)c(CC=C(C)C)c4)c(=O)oc3c2C)OC1(C)C (stereo partly specified)
  IC90: 4.96 µg/mL (≈ 8.1 µM)

## OCCN1CCN(CC/C=C2/c3ccccc3Sc3ccc(C(F)(F)F)cc32)CC1
  IC90: 5.46 µg/mL (≈ 12.6 µM)

## CCC(C)[C@H]1O[C@]2(C=C[C@@H]1C)C[C@@H]1C[C@@H](C/C=C(\C)C(O[C@H]3C[C@H](OC)C(O[C@H]4C[C@H](OC)[C@@H](O)[C@H](C)O4)[C@H](C)O3)[C@@H](C)/C=C/C=C3\CO[C@@H]4[C@H](O)C(C)=C[C@@H](C(=O)O1)[C@]34O)O2 (stereo partly specified)
  IC90: 2.72 µg/mL (≈ 3.12 µM)

## Cc1cc(N)c2ccccc2[n+]1CCCCCCCCCC[n+]1c(C)cc(N)c2ccccc21
  IC90: 1.78 µg/mL

## CCn1cc(C(=O)O)c(=O)c2cc(F)c(N3CCNCC3)cc21
  IC90: 0.81 µg/mL (≈ 2.54 µM)

## Nc1nc(=S)c2ncn([C@@H]3O[C@H](CO)[C@@H](O)[C@H]3O)c2[nH]1
  IC90: 11.9 µg/mL (≈ 39.7 µM)

## O=c1c2ccccc2[se]n1-c1ccccc1
  IC90: 2.16 µg/mL (≈ 7.87 µM)

## CC(=O)O[C@H]1C[C@@]2(C)[C@@H](C[C@@H](O)[C@H]3[C@@]4(C)CC[C@@H](O)[C@@H](C)C4CC[C@@]32C)/C1=C(\CCC=C(C)C)C(=O)O (stereo partly specified)
  IC90: 0.586 µg/mL (≈ 1.13 µM)

## Cc1cc(NS(=O)(=O)c2ccc(N)cc2)no1
  IC90: 4.34 µg/mL (≈ 17.1 µM)

## CN(C)[C@@H]1C(=O)C(C(N)=O)=C(O)[C@@]2(O)C(=O)C3=C(O)c4c(O)ccc(Cl)c4[C@@H](O)[C@H]3C[C@@H]12
  IC90: 12.6 µg/mL (≈ 27.1 µM)

## CCC(C)N1CCC2(CC1)N=c1c(c3c4c5c(C)c(O)c3c(O)c1=NC(=O)/C(C)=C/C=C/[C@H](C)[C@H](O)[C@@H](C)[C@@H](O)[C@@H](C)[C@H](OC(C)=O)[C@H](C)[C@@H](OC)/C=C/O[C@@](C)(O5)C4=O)N2 (stereo partly specified)
  IC90: 0.04 µg/mL (≈ 0.0472 µM)
